Reference: ChEMBL document CHEMBL3734655, “Identification of camphor derivatives as novel M2 ion channel inhibitors of influenza A virus” (Medchemcomm, 2015)
The source made the active and inactive calls. The rule behind the calls is not given here.

Columns and labels:
[1] = system: Influenza A virus H3N2; experiment: Antiviral activity against wild type M2 ion channel expressing Influenza A virus (A/Hong Kong/1968(H3N2)) infected in MDCK cells preincubated for 30 mins followed by viral infection measured after 72 hrs by CCK-8 assay; assay type: functional, organism-based; details: A/Hong Kong/1968, MDCK
[2] = Cytotoxicity against MDCK cells incubated for 72 hrs by CCK-8 assay; assay type: cell-based, Canis lupus familiaris; details: dog
[3] = system: Influenza A virus H3N2; experiment: Potency index, ratio of amantadine IC50 to compound IC50 for wild type M2 ion channel expressing Influenza A virus (A/Hong Kong/1968(H3N2)) infected in MDCK cells; assay type: functional
[4] = system: Influenza A virus H3N2; experiment: Antiviral activity against wild type Influenza A virus (A/Hong Kong/1968(H3N2)) infected in MDCK cells assessed as reduction in size and number of plaque at 0.2 uM after 2 to 3 days by crystal violet staining based assay; assay type: functional, organism-based
[5] = system: Influenza A virus H3N2; experiment: Antiviral activity against wild type Influenza A virus (A/Hong Kong/1968(H3N2)) infected in MDCK cells assessed as reduction in size and number of plaque at 1 uM after 2 to 3 days by crystal violet staining based assay; assay type: functional, organism-based

| Structure (SMILES) | IC50 [1] [nM] | MCC at 72 h [2] [µM] | Ratio IC50 [3] | Activity [4] | Activity [5] |
| --- | --- | --- | --- | --- | --- |
| C[C@H]1[C@H](N)C[C@@H]2C[C@H]1C2(C)C | 120 | > 300 | – | – | – |
| C[C@@H](N)[C@H]1C[C@H]2CC[C@]1(C)C2(C)C.Cl | 100 | > 300 | 5 | Active | Active |
| CC1(C)[C@@H]2CC[C@@]1(C)[C@@H](N)C2 (relative stereo) | 490 | > 300 | – | – | – |
| CC1(C)[C@@H]2CC[C@@]1(C)[C@@H](CN)C2 | 290 | > 300 | – | – | – |
| N[C@H]1C[C@@H]2CC[C@H]1C2 | 12400 | > 300 | – | – | – |
| C[C@H]1[C@H]([C@H](C)N)C[C@@H]2C[C@H]1C2(C)C | 1930 | > 300 | – | – | – |
| NC1CC2CCC1C2 (configuration not stated) | 17400 | > 300 | – | – | – |
| C[C@H]1[C@H](CN)C[C@@H]2C[C@H]1C2(C)C | 2470 | > 300 | – | – | – |
| CC1(C)[C@H]2CC[C@](C)(C2)[C@H]1CN | 15700 | > 300 | – | – | – |
| NC12CC3CC(CC(C3)C1)C2 [AMANTADINE] | 500 | – | – | – | – |
